From patent US20130029970A1 (priority 2009, published 2013)
Read-outs that look alike come from different tables or passages of the source.

Columns and labels:
[1] = biological target: T1, recombinant human cannabinoid receptor CB2 (Homo sapiens, UniProt P34972); assay: Cannabinoid receptor radioligand binding assay, [3H]-CP 55,940 displacement, hCB2
T1 construct: (cDNA clone) CNR0200000
Summary of the method: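 Receptor source: membrane pellet (40,000×g) from transfected cells, stored in HEPES pH 7.4/MgCl2/EDTA/sucrose buffer.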

[2] = biological target: T2, human CB1 receptors (Homo sapiens, UniProt P21554); assay: cAMP assay in HEK-293 cells, hCB1 agonist; assay type: cell-based; conditions: inhibition of forskolin-stimulated cAMP, HEK-293 cells; for EC50: read-out: hCB1 EC50 (cAMP ag)
T2 construct: (cDNA clone) CNR01L000
Summary of the method: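 Agonist EC50 taken as concentration giving half inhibition of forskolin-driven cAMP, normalized to forskolin maximum, from sigmoidal curves. Whole HEK-293 cells stably expressing hCB1, in HEPES/BSA-containing HBSS, exposed 30 min at 37° C. to compound with forskolin (90 uM in 3× dilution); cAMP read after lysis.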

[3] = biological target: T3, human CB2 (hCB2) (Homo sapiens, UniProt P34972); assay: 35S GTPγS binding assay, hCB2 agonist; assay type: biochemical
T3 construct: (cDNA clone) CNR0200000
Summary of the method: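 Agonist-stimulated [35S]GTPγS (0.1 nM) binding measured by scintillation proximity after 90 min at room temperature. Reaction buffer: 50 mM HEPES pH 7.4, 100 mM NaCl, 5 mM MgCl2, 0.001% saponin plus 20 uM GDP. Membranes (5 μg) came from transfected cells expressing hCB2 cDNA (pcDNA3.1+ vector).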

[4] = GTPγS agonist, HEK-293 membranes, read-out: hCB2 EC50 (GTPyS ag)

T3 sequence (P34972 whole entry): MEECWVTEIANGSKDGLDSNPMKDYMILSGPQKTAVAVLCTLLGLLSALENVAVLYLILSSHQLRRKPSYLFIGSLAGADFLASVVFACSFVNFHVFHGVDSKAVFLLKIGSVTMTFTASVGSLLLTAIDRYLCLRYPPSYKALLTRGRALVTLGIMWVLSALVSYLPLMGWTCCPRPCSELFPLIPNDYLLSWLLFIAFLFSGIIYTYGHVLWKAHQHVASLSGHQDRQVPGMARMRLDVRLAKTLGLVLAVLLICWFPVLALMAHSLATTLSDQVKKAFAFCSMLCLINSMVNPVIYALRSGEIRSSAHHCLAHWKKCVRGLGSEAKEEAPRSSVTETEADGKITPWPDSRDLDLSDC
T1 sequence (P34972 whole entry): as above
T2 sequence (P21554 whole entry): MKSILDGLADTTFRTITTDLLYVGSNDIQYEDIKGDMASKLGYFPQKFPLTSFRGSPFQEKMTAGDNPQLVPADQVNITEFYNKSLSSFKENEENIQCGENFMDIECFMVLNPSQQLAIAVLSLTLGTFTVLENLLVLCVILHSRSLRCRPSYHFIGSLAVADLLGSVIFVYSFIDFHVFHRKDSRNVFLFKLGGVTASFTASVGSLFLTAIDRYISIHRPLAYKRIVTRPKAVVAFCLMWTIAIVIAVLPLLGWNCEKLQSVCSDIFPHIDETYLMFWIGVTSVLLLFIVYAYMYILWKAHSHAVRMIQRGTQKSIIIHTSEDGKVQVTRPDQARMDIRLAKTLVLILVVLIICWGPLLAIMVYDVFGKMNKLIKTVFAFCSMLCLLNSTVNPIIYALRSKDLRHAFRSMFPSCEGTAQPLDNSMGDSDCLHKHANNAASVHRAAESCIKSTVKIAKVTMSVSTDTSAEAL

| Compound | IC50 [1] [nM] | EC50 [2] [nM] | EC50 [3] [nM] | hCB1 EC50 (cAMP ag, nM) [2] | EC50 [3, 4] [nM] |
| --- | --- | --- | --- | --- | --- |
| COc1ccc(C(=O)c2cc3cc(C)n(CCN4CCCC4)c3s2)c(Cl)c1 [Compound 93, (2-Chloro-4-methoxyphenyl)(5-methyl-6-(2-(pyrrolidin-1-yl)ethyl)-6H-thieno[2,3-b]pyrrol-2-yl)methanone] | < 100 | 1000 to 10000 | < 100 |  |  |
| COc1ccc(C(=O)c2cc3cc(C)n(CCCNS(C)(=O)=O)c3s2)c(C)c1 [Compound 96, N-(3-(2-(4-Methoxy-2-methylbenzoyl)-5-methyl-6H-thieno[2,3-b]pyrrol-6-yl)propyl)methanesulfonamide] | < 100 |  | < 100 | NS (NS means “Not Significant,” which means less than 30% agonist activity when compared to the positive control.) |  |
| COc1ccc(C(=O)c2cc3cc(C)n(CCN4CCCCC4)c3s2)c(F)c1 [Compound 98, (2-Fluoro-4-methoxyphenyl)(5-methyl-6-(2-(piperidin-1-yl)ethyl)-6H-thieno[2,3-b]pyrrol-2-yl)methanone] | < 100 |  | < 100 | NS (NS means “Not Significant,” which means less than 30% agonist activity when compared to the positive control.) |  |
| COc1ccc(C(=O)c2cc3cc(C)n(CCN4CCCCC4)c3s2)c(O)c1 [Compound 99, (2-Hydroxy-4-methoxyphenyl)(5-methyl-6-(2-(piperidin-1-yl)ethyl)-6H-thieno[2,3-b]pyrrol-2-yl)methanone] | 100 to 1000 |  | < 100 | NS (NS means “Not Significant,” which means less than 30% agonist activity when compared to the positive control.) |  |
| COc1ccc(C(O)c2cc3cc(C)n(CCN4CCOCC4)c3s2)cc1 (stereo not drawn) [Compound 100, (4-Methoxyphenyl)(5-methyl-6-(2-morpholinoethyl)-6H-thieno[2,3-b]pyrrol-2-yl)methanol] | 100 to 1000 |  |  | NS (NS means “Not Significant,” which means less than 30% agonist activity when compared to the positive control.) | < 100 |
| COc1ccc(C(C)(O)c2cc3cc(C)n(CCN4CCOCC4)c3s2)cc1 (stereo not drawn) [Compound 101, 1-(4-methoxyphenyl)-1-(5-methyl-6-(2-morpholinoethyl)-6H-thieno[2,3-b]pyrrol-2-yl)ethanol] | 100 to 1000 |  |  | NS (NS means “Not Significant,” which means less than 30% agonist activity when compared to the positive control.) | < 100 |
| COc1ccc(C(=O)c2cc3cc(C)n(CCCCNS(C)(=O)=O)c3s2)cc1 [Compound 102, N-(4-(2-(4-Methoxybenzoyl)-5-methyl-6H-thieno[2,3-b]pyrrol-6-yl)butyl)methanesulfonamide] | < 100 |  |  | NS (NS means “Not Significant,” which means less than 30% agonist activity when compared to the positive control.) | < 100 |
| COc1ccc(Cn2c(C)cc3cc(C(=O)c4ccc(OC)cc4)sc32)cc1 [Compound 103, (6-(4-Methoxybenzyl)-5-methyl-6H-thieno[2,3-b]pyrrol-2-yl)(4-methoxyphenyl)methanone] | 100 to 1000 |  | 100 to 1000 | NS (NS means “Not Significant,” which means less than 30% agonist activity when compared to the positive control.) |  |
| COc1ccc(C(=S)c2cc3cc(C)n(CCN4CCOCC4)c3s2)cc1 [Compound 104, (4-methoxyphenyl)(5-methyl-6-(2-morpholinoethyl)-6H-thieno[2,3-b]pyrrol-2-yl)methanethione] | 1000 to 10000 |  | 100 to 1000 | NS (NS means “Not Significant,” which means less than 30% agonist activity when compared to the positive control.) |  |
| COc1ccc(C(=O)c2cc3cc(C)n(CCCNS(N)(=O)=O)c3s2)cc1 [Compound 105] | 1000 to 10000 |  | 100 to 1000 | NS (NS means “Not Significant,” which means less than 30% agonist activity when compared to the positive control.) |  |
| Cc1cc2cc(C(=O)c3ccc4c(c3)OCO4)sc2n1CCN1CCOCC1 [Compound 106, Benzo[d][1,3]dioxol-5-yl(5-methyl-6-(2-morpholinoethyl)-6H-thieno[2,3-b]pyrrol-2-yl)methanone] | 100 to 1000 |  | < 100 | NS (NS means “Not Significant,” which means less than 30% agonist activity when compared to the positive control.) |  |
| COc1ccc(C(=O)c2cc3cc(C)n(CCCN4CCOCC4)c3s2)cc1 [Compound 107, (4-Methoxyphenyl)(5-methyl-6-(3-morpholinopropyl)-6H-thieno[2,3-b]pyrrol-2-yl)methanone] | < 100 | 100 to 1000 |  |  | < 100 |
| COc1ccc(C(=O)c2cc3cc(C)n(CCCNC(C)(C)C)c3s2)cc1 [Compound 108, (6-(3-(tert-Butylamino)propyl)-5-methyl-6H-thieno[2,3-b]pyrrol-2-yl)(4-methoxyphenyl)methanone] | > 10000 |  | 100 to 1000 | NS (NS means “Not Significant,” which means less than 30% agonist activity when compared to the positive control.) |  |
| COc1ccc(C(=O)c2cc3cc(C)n(CCCNS(C)(=O)=O)c3s2)cn1 [Compound 109, N-(3-(2-(6-Methoxynicotinoyl)-5-methyl-6H-thieno[2,3-b]pyrrol-6-yl)propyl)methanesulfonamide] | 100 to 1000 |  |  | NS (NS means “Not Significant,” which means less than 30% agonist activity when compared to the positive control.) | < 100 |
| COc1ccc(C(=O)c2cc3cc(C)n(CCN4CCSCC4)c3s2)cc1 [Compound 110, (4-Methoxyphenyl)(5-methyl-6-(2-thiomorpholinoethyl)-6H-thieno[2,3-b]pyrrol-2-yl)methanone] | < 100 | 1000 to 10000 | < 100 |  |  |
| Cc1cc2cc(C(=O)c3ccc(OC(C)C)cc3)sc2n1CCN1CCOCC1 [Compound 111, (4-Isopropoxyphenyl)(5-methyl-6-(2-morpholinoethyl)-6H-thieno[2,3-b]pyrrol-2-yl)methanone] | 100 to 1000 |  | 100 to 1000 | NS (NS means “Not Significant,” which means less than 30% agonist activity when compared to the positive control.) |  |
| COc1ccc(C(=O)c2cc3cc(C)n(Cc4ccncc4)c3s2)cc1 [Compound 112, (4-Methoxyphenyl)(5-methyl-6-(pyridin-4-ylmethyl)-6H-thieno[2,3-b]pyrrol-2-yl)methanone] | 100 to 1000 |  | 100 to 1000 | NS (NS means “Not Significant,” which means less than 30% agonist activity when compared to the positive control.) |  |
| COc1ccc(C(=O)c2cc3cc(C)n(S(=O)(=O)N(C)C)c3s2)cn1 [Compound 113, 2-(6-Methoxynicotinoyl)-N,N,5-trimethyl-6H-thieno[2,3-b]pyrrole-6-sulfonamide] | < 100 |  | < 100 | NS (NS means “Not Significant,” which means less than 30% agonist activity when compared to the positive control.) |  |
| COc1ccc(C(=O)c2cc3cc(C)n(Cc4ccccc4)c3s2)c(Cl)c1 [Compound 114, (6-Benzyl-5-methyl-6H-thieno[2,3-b]pyrrol-2-yl)(2-chloro-4-methoxyphenyl)methanone] | < 100 | 1000 to 10000 |  |  | < 100 |
| CSc1ccc(C(=O)c2cc3cc(C)n(CCN4CCOCC4)c3s2)cc1 [Compound 115, (5-Methyl-6-(2-morpholinoethyl)-6H-thieno[2,3-b]pyrrol-2-yl)(4-(methylthio)phenyl)methanone] | 100 to 1000 |  | 100 to 1000 | NS (NS means “Not Significant,” which means less than 30% agonist activity when compared to the positive control.) |  |
| COc1ccc(C(=O)c2cc3cc(C)n(CCN4CCOCC4)c3s2)cc1Cl [Compound 116, (3-Chloro-4-methoxyphenyl)(5-methyl-6-(2-morpholinoethyl)-6H-thieno[2,3-b]pyrrol-2-yl)methanone] | 100 to 1000 |  | < 100 | NS (NS means “Not Significant,” which means less than 30% agonist activity when compared to the positive control.) |  |
| COc1ccc(C(=O)c2cc3cc(C)n(CCN4CCCCC4)c3s2)cn1 [Compound 117, (6-Methoxypyridin-3-yl)(5-methyl-6-(2-(piperidin-1-yl)ethyl)-6H-thieno[2,3-b]pyrrol-2-yl)methanone] | 100 to 1000 |  | < 100 | NS (NS means “Not Significant,” which means less than 30% agonist activity when compared to the positive control.) |  |
| CCc1ccc(C(=O)c2cc3cc(C)n(CCN4CCOCC4)c3s2)cc1 [Compound 122, (4-Ethylphenyl)(5-methyl-6-(2-morpholinoethyl)-6H-thieno[2,3-b]pyrrol-2-yl)methanone] | < 100 | 1000 to 10000 | < 100 |  |  |
| Cc1cc2cc(C(=O)c3cccc(Cl)n3)sc2n1CCN1CCOCC1 [Compound 123, (6-Chloropyridin-2-yl)(5-methyl-6-(2-morpholinoethyl)-6H-thieno[2,3-b]pyrrol-2-yl)methanone] | 100 to 1000 |  | 100 to 1000 | NS (NS means “Not Significant,” which means less than 30% agonist activity when compared to the positive control.) |  |
